From US20190330224A1, “ACC INHIBITORS AND USES THEREOF” (Gilead Apollo, LLC, priority 2015, published 2019)
In brackets after ≈: the same amount, converted by molar mass.

Tests used:
Human ACC2 = Human ACC2 (Homo sapiens, UniProt O00763); test: In vitro ACC2 inhibition assay (ADP-Glo), human ACC2; type: biochemical; settings: 5 nM ACC2, 20 μM ATP, 20 μM acetyl-CoA
C. albicans ATCC 90028 = test: Anti-Fungal Activity Assay (broth microtiter MIC), C. albicans; type: cell-based, Candida albicans; settings: Candida albicans, ATCC90028, 48 h, 3 replicates; MIC recorded at 48 h; read-out: MIC C. albicans ATCC 90028
Procedure, shortened: (§1)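 Broth microdilution per CLSI M27-A3 in RPMI 1640+MOPS, inoculum from overnight Sabouraud dextrose agar colonies at 35° C; compounds from 1 mg/mL DMSO stocks. MIC read visually against growth control at 48 h, with an added 24 h reading for soraphen.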

C. krusei ATCC 6258 = test: Anti-Fungal Activity Assay (broth microtiter MIC), C. krusei; type: cell-based, Candida krusei; settings: Pichia kudriavzevii, ATCC6258, 48 h, 3 replicates; MIC recorded at 48 h; read-out: MIC C. krusei ATCC 6258
Procedure, shortened: as §1

[1] = test system: C. parapsilosis ATCC 22019; test: Anti-Fungal Activity Assay (broth microtiter MIC), C. parapsilosis; type: cell-based, Candida parapsilosis; settings: Lodderomyces parapsilosis, ATCC22019, 48 h, 3 replicates; MIC recorded at 48 h; read-out: MIC C. parapsilosis ATCC 22019
Procedure, shortened: as §1

Fungal ACC2 = Fungal ACC2 (UniProt Q00955); settings: read-out: Fungal ACC2 (IC50, in vitro ACC2 inhibition)
Sequence of Fungal ACC2 (Q00955 whole entry): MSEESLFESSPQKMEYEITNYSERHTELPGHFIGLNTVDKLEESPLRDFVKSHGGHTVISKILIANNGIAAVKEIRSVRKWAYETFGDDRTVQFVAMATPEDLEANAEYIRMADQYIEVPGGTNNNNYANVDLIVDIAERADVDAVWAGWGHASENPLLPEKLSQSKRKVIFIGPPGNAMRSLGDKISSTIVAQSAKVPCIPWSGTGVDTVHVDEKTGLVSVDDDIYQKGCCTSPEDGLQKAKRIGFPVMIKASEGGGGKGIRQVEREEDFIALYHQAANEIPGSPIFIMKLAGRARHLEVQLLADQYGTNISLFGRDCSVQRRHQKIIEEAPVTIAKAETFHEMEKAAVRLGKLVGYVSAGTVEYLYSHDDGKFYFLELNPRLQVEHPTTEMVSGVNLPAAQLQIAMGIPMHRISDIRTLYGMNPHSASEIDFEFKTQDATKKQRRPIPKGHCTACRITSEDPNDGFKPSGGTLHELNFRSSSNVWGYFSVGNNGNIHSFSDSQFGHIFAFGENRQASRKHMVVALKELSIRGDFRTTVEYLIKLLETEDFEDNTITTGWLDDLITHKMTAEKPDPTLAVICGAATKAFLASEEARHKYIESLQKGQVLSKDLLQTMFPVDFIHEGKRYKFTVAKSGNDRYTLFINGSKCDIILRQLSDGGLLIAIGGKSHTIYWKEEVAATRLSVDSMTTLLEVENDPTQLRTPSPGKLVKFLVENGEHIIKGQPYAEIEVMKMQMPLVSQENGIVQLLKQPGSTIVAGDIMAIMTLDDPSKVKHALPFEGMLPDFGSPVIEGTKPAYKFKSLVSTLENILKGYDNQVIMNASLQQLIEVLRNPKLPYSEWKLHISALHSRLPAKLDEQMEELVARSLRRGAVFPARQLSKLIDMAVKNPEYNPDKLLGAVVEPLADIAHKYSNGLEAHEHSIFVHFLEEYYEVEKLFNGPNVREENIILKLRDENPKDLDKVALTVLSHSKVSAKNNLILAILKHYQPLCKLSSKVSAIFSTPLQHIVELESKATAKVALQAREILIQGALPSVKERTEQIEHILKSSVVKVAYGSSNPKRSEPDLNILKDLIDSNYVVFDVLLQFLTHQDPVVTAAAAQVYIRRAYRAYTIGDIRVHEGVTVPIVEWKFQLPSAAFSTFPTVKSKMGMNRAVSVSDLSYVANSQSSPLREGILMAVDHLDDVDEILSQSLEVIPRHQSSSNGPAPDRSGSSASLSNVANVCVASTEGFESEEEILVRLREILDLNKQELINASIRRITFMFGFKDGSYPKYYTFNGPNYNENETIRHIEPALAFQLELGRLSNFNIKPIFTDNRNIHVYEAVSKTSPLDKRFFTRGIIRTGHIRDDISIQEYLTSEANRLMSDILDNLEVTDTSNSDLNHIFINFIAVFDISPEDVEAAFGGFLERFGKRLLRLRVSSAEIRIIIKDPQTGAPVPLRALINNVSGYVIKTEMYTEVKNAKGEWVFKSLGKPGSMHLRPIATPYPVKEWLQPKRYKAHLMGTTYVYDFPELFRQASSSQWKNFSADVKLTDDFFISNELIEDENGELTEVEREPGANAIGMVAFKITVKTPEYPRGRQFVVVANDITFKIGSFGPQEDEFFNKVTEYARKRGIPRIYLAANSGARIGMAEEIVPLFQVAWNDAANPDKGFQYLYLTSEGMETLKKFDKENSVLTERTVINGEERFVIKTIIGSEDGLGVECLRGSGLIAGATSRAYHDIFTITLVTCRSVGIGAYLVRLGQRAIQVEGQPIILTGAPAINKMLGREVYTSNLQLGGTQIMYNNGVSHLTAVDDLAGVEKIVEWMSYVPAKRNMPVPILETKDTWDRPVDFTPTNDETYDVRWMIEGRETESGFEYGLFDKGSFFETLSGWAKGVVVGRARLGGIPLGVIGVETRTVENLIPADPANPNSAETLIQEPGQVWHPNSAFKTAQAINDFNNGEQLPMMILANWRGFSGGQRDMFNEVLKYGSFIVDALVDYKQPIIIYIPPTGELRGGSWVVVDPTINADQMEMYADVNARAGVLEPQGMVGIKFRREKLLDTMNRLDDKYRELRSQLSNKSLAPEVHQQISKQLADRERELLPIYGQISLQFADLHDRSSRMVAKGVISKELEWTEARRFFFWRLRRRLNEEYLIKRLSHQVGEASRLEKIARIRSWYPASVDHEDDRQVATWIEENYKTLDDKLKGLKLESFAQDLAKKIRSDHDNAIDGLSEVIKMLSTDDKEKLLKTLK

Sequence of Human ACC2 (O00763 whole entry): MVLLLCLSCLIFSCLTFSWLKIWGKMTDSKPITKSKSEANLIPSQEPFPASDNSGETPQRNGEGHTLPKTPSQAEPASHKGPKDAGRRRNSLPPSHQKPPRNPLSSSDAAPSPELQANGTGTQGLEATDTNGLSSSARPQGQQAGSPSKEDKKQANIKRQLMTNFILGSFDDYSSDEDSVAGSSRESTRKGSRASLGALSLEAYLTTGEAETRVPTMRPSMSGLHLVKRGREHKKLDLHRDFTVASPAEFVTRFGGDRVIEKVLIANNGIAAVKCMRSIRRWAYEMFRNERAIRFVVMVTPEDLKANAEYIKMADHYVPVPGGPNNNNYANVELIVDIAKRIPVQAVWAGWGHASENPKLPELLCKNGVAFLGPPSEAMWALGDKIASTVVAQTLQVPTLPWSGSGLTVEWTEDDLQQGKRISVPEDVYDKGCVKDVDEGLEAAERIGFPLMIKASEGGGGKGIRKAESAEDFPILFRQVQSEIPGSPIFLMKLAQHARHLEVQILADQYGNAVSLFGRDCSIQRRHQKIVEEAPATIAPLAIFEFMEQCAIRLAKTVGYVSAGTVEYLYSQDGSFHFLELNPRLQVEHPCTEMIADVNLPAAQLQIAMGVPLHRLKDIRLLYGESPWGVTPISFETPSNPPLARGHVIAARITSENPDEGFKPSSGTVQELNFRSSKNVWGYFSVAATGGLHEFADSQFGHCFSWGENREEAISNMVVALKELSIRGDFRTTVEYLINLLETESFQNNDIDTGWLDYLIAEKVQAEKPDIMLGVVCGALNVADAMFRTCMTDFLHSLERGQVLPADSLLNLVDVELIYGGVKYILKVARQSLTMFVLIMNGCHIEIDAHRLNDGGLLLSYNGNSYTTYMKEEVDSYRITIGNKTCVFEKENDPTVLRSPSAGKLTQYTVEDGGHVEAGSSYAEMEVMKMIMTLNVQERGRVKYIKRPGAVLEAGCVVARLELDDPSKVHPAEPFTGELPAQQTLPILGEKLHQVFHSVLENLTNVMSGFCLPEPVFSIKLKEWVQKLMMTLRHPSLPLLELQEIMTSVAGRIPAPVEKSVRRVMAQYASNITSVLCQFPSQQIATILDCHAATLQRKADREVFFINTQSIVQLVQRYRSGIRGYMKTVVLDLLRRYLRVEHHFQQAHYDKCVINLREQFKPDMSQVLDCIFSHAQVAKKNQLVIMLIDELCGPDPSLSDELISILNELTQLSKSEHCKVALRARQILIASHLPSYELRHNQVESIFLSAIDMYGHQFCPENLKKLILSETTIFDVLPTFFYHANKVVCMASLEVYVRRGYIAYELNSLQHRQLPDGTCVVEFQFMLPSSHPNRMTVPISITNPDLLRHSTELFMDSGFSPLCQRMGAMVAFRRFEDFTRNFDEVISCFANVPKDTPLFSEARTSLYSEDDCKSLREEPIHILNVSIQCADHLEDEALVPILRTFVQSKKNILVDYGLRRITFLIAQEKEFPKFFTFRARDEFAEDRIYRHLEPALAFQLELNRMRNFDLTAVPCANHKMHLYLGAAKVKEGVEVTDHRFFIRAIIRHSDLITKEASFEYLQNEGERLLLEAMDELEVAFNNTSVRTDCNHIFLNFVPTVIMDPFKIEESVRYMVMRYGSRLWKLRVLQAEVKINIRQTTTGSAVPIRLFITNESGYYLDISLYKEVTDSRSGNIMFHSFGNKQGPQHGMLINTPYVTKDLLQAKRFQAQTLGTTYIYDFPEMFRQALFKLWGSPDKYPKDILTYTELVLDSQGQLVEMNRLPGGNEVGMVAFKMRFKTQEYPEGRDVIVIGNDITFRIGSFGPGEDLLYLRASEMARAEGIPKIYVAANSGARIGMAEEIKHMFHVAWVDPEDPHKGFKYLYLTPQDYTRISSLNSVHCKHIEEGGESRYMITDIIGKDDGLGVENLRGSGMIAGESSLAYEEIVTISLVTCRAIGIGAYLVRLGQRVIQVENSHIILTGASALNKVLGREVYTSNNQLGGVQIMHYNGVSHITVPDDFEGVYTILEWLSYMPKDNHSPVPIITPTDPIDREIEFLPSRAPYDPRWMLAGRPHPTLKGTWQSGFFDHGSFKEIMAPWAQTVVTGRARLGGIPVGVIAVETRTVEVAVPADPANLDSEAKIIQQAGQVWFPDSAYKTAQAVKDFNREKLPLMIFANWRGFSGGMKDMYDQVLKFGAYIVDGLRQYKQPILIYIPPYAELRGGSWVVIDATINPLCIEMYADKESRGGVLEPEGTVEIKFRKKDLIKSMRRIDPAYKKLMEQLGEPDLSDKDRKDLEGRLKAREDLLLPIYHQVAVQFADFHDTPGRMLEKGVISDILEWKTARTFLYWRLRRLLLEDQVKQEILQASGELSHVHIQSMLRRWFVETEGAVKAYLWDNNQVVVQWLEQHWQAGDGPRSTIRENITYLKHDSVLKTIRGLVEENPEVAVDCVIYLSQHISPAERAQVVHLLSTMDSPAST

Row | Compound | IC50 (Human ACC2) | MIC (C. albicans ATCC 90028) | MIC (C. krusei ATCC 6258) | MIC [1] | IC50 (Fungal ACC2)
1 | COCCO[C@@H](Cn1c(=O)n([C@]2(C)CCCNC2=O)c(=O)c2c(C)c(-n3nccn3)sc21)c1cc(F)ccc1OC [Compound I-124, 1-((R)-2-(5-fluoro-2-methoxyphenyl)-2-(2-methoxy-ethoxy)ethyl)-5-methyl-3-((R)-3-methyl-2-oxopiperidin-3-yl)-6-(2H-1,2,3-triazol-2-yl)thieno[2,3-d]pyrimidine-2,4(1H,3H)-dione] | 0.01 to 0.1 µM | 2.1 to 4 µg/mL (≈ 3.58 to 6.82 µM) | 2.1 to 4 µg/mL (≈ 3.58 to 6.82 µM) | 2.1 to 4 µg/mL (≈ 3.58 to 6.82 µM) | 0.002 to 0.01 µM
2 | COc1ccc(F)cc1[C@H](COc1nc2sc(-n3nccn3)c(C)c2c(=O)n1[C@@H]1CC(=O)N(C)C1)OCCO [Compound I-112, 2-((R)-2-(5-fluoro-2-methoxyphenyl)-2-(2-hydroxy-ethoxy)ethoxy)-5-methyl-3-((R)-1-methyl-5-oxopyrrolidin-3-yl)-6-(2H-1,2,3-triazol-2-yl)thieno[2,3-d]pyrimidin-4(3H)-one] | > 1 µM | 2.1 to 4 µg/mL (≈ 3.76 to 7.16 µM) | 2.1 to 4 µg/mL (≈ 3.76 to 7.16 µM) | 2.1 to 4 µg/mL (≈ 3.76 to 7.16 µM) | 0.01 to 0.1 µM
3 | COCCO[C@@H](Cn1c(=O)n(C2CCN(C)C2=O)c(=O)c2c(C)c(-n3nccn3)sc21)c1cc(F)ccc1OC (stereo partly drawn) [Compound I-2, 1-((R)-2-(5-fluoro-2-methoxyphenyl)-2-(2-methoxy-ethoxy)ethyl)-5-methyl-3-(1-methyl-2-oxopyrrolidin-3-yl)-6-(2H-1,2,3-triazol-2-yl)thieno[2,3-d]pyrimidine-2,4(1H,3H)-dione] | 0.01 to 0.1 µM | 2.1 to 4 µg/mL (≈ 3.67 to 6.99 µM) | 2.1 to 4 µg/mL (≈ 3.67 to 6.99 µM) | 2.1 to 4 µg/mL (≈ 3.67 to 6.99 µM) | 0.002 to 0.01 µM
4 | COCCO[C@@H](Cn1c(=O)n([C@@H]2CCN(C(=O)C(C)C)C2)c(=O)c2c(C)c(-n3nccn3)sc21)c1cc(F)ccc1OC [Compound I-86, 1-((R)-2-(5-fluoro-2-methoxyphenyl)-2-(2-methoxy-ethoxy)ethyl)-3-((R)-1-isobutyrylpyrrolidine-3-yl)-5-methyl-6-(2H-1,2,3-triazol-2-yl)thieno[2,3-d]pyrimidine-2,4(1H,3H)-dione] | 0.01 to 0.1 µM | 2.1 to 4 µg/mL (≈ 3.42 to 6.51 µM) | 2.1 to 4 µg/mL (≈ 3.42 to 6.51 µM) | 2.1 to 4 µg/mL (≈ 3.42 to 6.51 µM) | 0.0007 to 0.002 µM
5 | COc1ccc(F)cc1[C@H](Cn1c(=O)n([C@@H]2CCNC2=O)c(=O)c2c(C)c(-n3nccn3)sc21)O[C@H]1C[C@H](O)C1 [Compound I-186, 1-((R)-2-(5-fluoro-2-methoxyphenyl)-2-((1r,3R)-3-hydroxycyclobutoxy)ethyl)-5-methyl-3-((R)-2-oxopyrrolidin-3-yl)-6-(2H-1,2,3-triazol-2-yl)thieno[2,3-d]pyrimidine-2,4(1H,3H)-dione] | 0.002 to 0.01 µM | 2.1 to 4 µg/mL (≈ 3.68 to 7.01 µM) | 2.1 to 4 µg/mL (≈ 3.68 to 7.01 µM) | 2.1 to 4 µg/mL (≈ 3.68 to 7.01 µM) | 0.0007 to 0.002 µM
6 | COc1ccc(F)cc1[C@H](Cn1c(=O)n([C@H]2CC(=O)N(C)C2)c(=O)c2c(C)c(-n3nccn3)sc21)OCCO [Compound I-95, 1-((R)-2-(5-fluoro-2-methoxyphenyl)-2-(2-hydroxy-ethoxy)ethyl)-5-methyl-3-((S)-1-methyl-5-oxopyrrolidin-3-yl)-6-(2H-1,2,3-triazol-2-yl)thieno[2,3-d]pyrimidine-2,4(1H,3H)-dione] | 0.002 to 0.01 µM | 2.1 to 4 µg/mL (≈ 3.76 to 7.16 µM) | 2.1 to 4 µg/mL (≈ 3.76 to 7.16 µM) | 2.1 to 4 µg/mL (≈ 3.76 to 7.16 µM) | 0.002 to 0.01 µM
7 | COCCO[C@@H](Cn1c(=O)n(C2CCCN(C(C)C)C2=O)c(=O)c2c(C)c(-n3nccn3)sc21)c1cc(F)ccc1OC (stereo partly drawn) [Compound I-16, 1-((R)-2-(5-fluoro-2-methoxyphenyl)-2-(2-methoxy-ethoxy)ethyl)-3-(1-isopropyl-2-oxopiperidin-3-yl)-5-methyl-6-(2H-1,2,3-triazol-2-yl)thieno[2,3-d]pyrimidine-2,4(1H,3H)-dione] | 0.1 to 1 µM | 2.1 to 4 µg/mL (≈ 3.42 to 6.51 µM) | 2.1 to 4 µg/mL (≈ 3.42 to 6.51 µM) | 2.1 to 4 µg/mL (≈ 3.42 to 6.51 µM) | 0.002 to 0.01 µM
8 | COc1ccc(F)cc1[C@H](Cn1c(=O)n([C@]2(C)CC(=O)N(C)C2)c(=O)c2c(C)c(-n3nccn3)sc21)OCCO [Compound I-121, 3-((R)-1,3-dimethyl-5-oxopyrrolidin-3-yl)-1-((R)-2-(5-fluoro-2-methoxyphenyl)-2-(2-hydroxyethoxy)ethyl)-5-methyl-6-(2H-1,2,3-triazol-2-yl)thieno[2,3-d]pyrimidine-2,4(1H,3H)-dione] | 0.01 to 0.1 µM | 2.1 to 4 µg/mL (≈ 3.67 to 6.99 µM) | 2.1 to 4 µg/mL (≈ 3.67 to 6.99 µM) | 2.1 to 4 µg/mL (≈ 3.67 to 6.99 µM) | 0.0007 to 0.002 µM
9 | COc1ccc(F)cc1[C@H](Cn1c(=O)n([C@@H]2CCNC2=O)c(=O)c2c(C)c(-n3nccn3)sc21)O[C@H]1C[C@@H](O)C1 [Compound I-184, 1-((R)-2-(5-fluoro-2-methoxyphenyl)-2-((1s, 3S)-3-hydroxycyclobutoxy)ethyl)-5-methyl-3-((R)-2-oxopyrrolidin-3-yl)-6-(2H-1-1,2,3-triazol-2-yl)thieno[2,3-d]pyrimidine-2,4(1H,3H)-dione] | 0.002 to 0.01 µM | 2.1 to 4 µg/mL (≈ 3.68 to 7.01 µM) | 2.1 to 4 µg/mL (≈ 3.68 to 7.01 µM) | 2.1 to 4 µg/mL (≈ 3.68 to 7.01 µM) | 0.0007 to 0.002 µM
10 | COc1ccccc1[C@H](Cn1c(=O)n([C@H]2CCN(C)C2=O)c(=O)c2c(C)c(-n3nccn3)sc21)OC [Compound I-171, 1-((R)-2-methoxy-2-(2-methoxyphenyl)ethyl)-5-methyl-3-((S)-1-methyl-2-oxopyrrolidin-3-yl)-6-(2H-1,2,3-triazol-2-yl)thieno[2,3-d]pyrimidine-2,4(1H,3H)-dione] | 0.01 to 0.1 µM | 2.1 to 4 µg/mL (≈ 4.11 to 7.83 µM) | 2.1 to 4 µg/mL (≈ 4.11 to 7.83 µM) | 2.1 to 4 µg/mL (≈ 4.11 to 7.83 µM) | 0.002 to 0.01 µM
11 | COCCO[C@@H](Cn1c(=O)n([C@@]2(C)CCCNC2=O)c(=O)c2c(C)c(-n3nccn3)sc21)c1cc(F)ccc1OC [Compound I-125, 1-((R)-2-(5-fluoro-2-methoxyphenyl)-2-(2-methoxy-ethoxy)ethyl)-5-methyl-3-((S)-3-methyl-2-oxopiperidin-3-yl)-6-(2H-1,2,3-triazol-2-yl)thieno[2,3-d]pyrimidine-2,4(1H,3H)-dione] | 0.01 to 0.1 µM | 2.1 to 4 µg/mL (≈ 3.58 to 6.82 µM) | 2.1 to 4 µg/mL (≈ 3.58 to 6.82 µM) | 2.1 to 4 µg/mL (≈ 3.58 to 6.82 µM) | 0.002 to 0.01 µM
12 | COCCO[C@@H](Cn1c(=O)n([C@@H]2CC(=O)N(C)C2)c(=O)c2c(C)c(-n3nccn3)sc21)c1cc(F)ccc1OC [Compound I-92, 1-((R)-2-(5-fluoro-2-methoxyphenyl)-2-(2-methoxy-ethoxy)ethyl)-5-methyl-3-((R)-1-methyl-5-oxopyrrolidin-3-yl)-6-(2H-1,2,3-triazol-2-yl)thieno[2,3-d]pyrimidine-2,4(1H,3H)-dione] | 0.01 to 0.1 µM | 2.1 to 4 µg/mL (≈ 3.67 to 6.99 µM) | 2.1 to 4 µg/mL (≈ 3.67 to 6.99 µM) | 2.1 to 4 µg/mL (≈ 3.67 to 6.99 µM) | 0.0007 to 0.002 µM
13 | COCCO[C@@H](Cn1c(=O)n([C@@]2(C)CNC(=O)C2)c(=O)c2c(C)c(-n3nccn3)sc21)c1cc(F)ccc1OC [Compound I-114, 1-((R)-2-(5-fluoro-2-methoxyphenyl)-2-(2-methoxyethoxy)ethyl)-5-methyl-3-((R)-3-methyl-5-oxopyrrolidin-3-yl)-6-(2H-1,2,3-triazol-2-yl)thieno[2,3-d]pyrimidine-2,4(1H,3H)-dione] | 0.01 to 0.1 µM | 2.1 to 4 µg/mL (≈ 3.67 to 6.99 µM) | 2.1 to 4 µg/mL (≈ 3.67 to 6.99 µM) | 2.1 to 4 µg/mL (≈ 3.67 to 6.99 µM) | 0.002 to 0.01 µM
14 | COc1ccc(F)cc1[C@H](Cn1c(=O)n([C@]2(C)CCCNC2=O)c(=O)c2c(C)c(-n3nccn3)sc21)OCCO [Compound I-126, 1-((R)-2-(5-fluoro-2-methoxyphenyl)-2-(2-hydroxyethoxy)ethyl)-5-methyl-3-((R)-3-methyl-2-oxopiperidin-3-yl)-6-(2H, 1,2,3-triazol-2-yl)thieno[2,3-d]pyrimidine-2,4(1H,3H)-dione] | 0.002 to 0.01 µM | 2.1 to 4 µg/mL (≈ 3.67 to 6.99 µM) | 0.25 to 1 µg/mL (≈ 0.437 to 1.75 µM) | 2.1 to 4 µg/mL (≈ 3.67 to 6.99 µM) | 0.0007 to 0.002 µM
15 | COCCO[C@@H](Cn1c(=O)n([C@@H]2CNC(=O)C2)c(=O)c2c(C)c(-n3nccn3)sc21)c1cc(F)ccc1OC [Compound I-90, 1-((R)-2-(5-fluoro-2-methoxyphenyl)-2-(2-methoxy-ethoxy)ethyl)-5-methyl-3-((S)-5-oxopyrrolidin-3-yl)-6-(2H-1,2,3-triazol-2-yl)thieno[2,3-d]pyrimidine-2,4(1H,3H)-dione] | 0.002 to 0.01 µM | 2.1 to 4 µg/mL (≈ 3.76 to 7.16 µM) | 2.1 to 4 µg/mL (≈ 3.76 to 7.16 µM) | 2.1 to 4 µg/mL (≈ 3.76 to 7.16 µM) | 0.0007 to 0.002 µM
16 | COCCO[C@@H](Cn1c(=O)n([C@H]2CC(=O)N(C)C2)c(=O)c2c(C)c(-n3nccn3)sc21)c1cc(F)ccc1OC [Compound I-94, 1-((R)-2-(5-fluoro-2-methoxyphenyl)-2-(2-methoxy-ethoxy)ethyl)-5-methyl-3-((S)-1-methyl-5-oxopyrrolidin-3-yl)-6-(2H-1,2,3-triazol-2-yl)thieno[2,3-d]pyrimidine-2,4(1H, 3H)-dione] | 0.002 to 0.01 µM | 2.1 to 4 µg/mL (≈ 3.67 to 6.99 µM) | 2.1 to 4 µg/mL (≈ 3.67 to 6.99 µM) | 2.1 to 4 µg/mL (≈ 3.67 to 6.99 µM) | 0.0007 to 0.002 µM
17 | COc1ccc(F)cc1[C@H](Cn1c(=O)n([C@@H]2CCNC2=O)c(=O)c2c(C)c(-n3nccn3)sc21)O[C@H]1CC[C@@H](O)CC1 [Compound I-188, 1-((R)-2-(5-fluoro-2-methoxyphenyl)-2-(((1 s, 4S)-4-hydroxycyclohexyl)oxy)ethyl)-5-methyl-3-((R)-2-oxopyrrolidin-3-yl)-6-(2H-1,2,3-triazol-2-yl)thieno[2,3-d]pyrimidine-2,4(1H3H)-dione] | 0.002 to 0.01 µM | 0.25 to 1 µg/mL (≈ 0.418 to 1.67 µM) | 0.25 to 1 µg/mL (≈ 0.418 to 1.67 µM) | 1.1 to 2 µg/mL (≈ 1.84 to 3.34 µM) | 0.0007 to 0.002 µM
